Reference: PubChem BioAssay AID1963981 (Molecular Pharmacology Branch, DTP, NCI, 2024)

Tested on: 354836-022-R-J1-PDC multicell spheroid viability
Experiment: Anticancer human tumor 354836-022-R-J1-PDC patient-derived head and neck squamous cell carcinoma cell line growth inhibition [PI3K]
Conditions: for viability, T/C: stronger effect = lower value
Summary of the method: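 Complex 3D spheroids (cancer cells + endothelial HUVEC + mesenchymal stem cells); drug pairs of targeted agent x inavolisib/alpelisib/duvelisib/copanlisib; half-log series from ~Cmax, max 10 microM if Cmax unknown; endpoint viability.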

[1] = curve of first compound, second compound 0.00316 µM
[2] = curve of first compound, second compound 0.01 µM
[3] = curve of first compound, second compound 0.0316 µM
[4] = curve of first compound, second compound 0.1 µM
[5] = curve of first compound, second compound 0.316 µM
[6] = curve of first compound, second compound 1 µM
[7] = second compound 0.00316 µM, first compound 0.0316 µM
[8] = second compound 0.00316 µM, first compound 0.1 µM
[9] = second compound 0.01 µM, first compound 0.0316 µM
[10] = second compound 0.01 µM, first compound 0.1 µM
[11] = second compound 0.0316 µM, first compound 0.000316 µM
[12] = second compound 0.0316 µM, first compound 0.001 µM
[13] = second compound 0.0316 µM, first compound 0.00316 µM
[14] = second compound 0.0316 µM, first compound 0.01 µM
[15] = second compound 0.0316 µM, first compound 0.0316 µM
[16] = second compound 0.0316 µM, first compound 0.1 µM
[17] = second compound 0.1 µM, first compound 0.000316 µM
[18] = second compound 0.1 µM, first compound 0.001 µM
[19] = second compound 0.1 µM, first compound 0.00316 µM
[20] = second compound 0.1 µM, first compound 0.01 µM
[21] = second compound 0.1 µM, first compound 0.0316 µM
[22] = second compound 0.1 µM, first compound 0.1 µM
[23] = second compound 0.316 µM, first compound 0.000316 µM
[24] = second compound 0.316 µM, first compound 0.001 µM
[25] = second compound 0.316 µM, first compound 0.00316 µM
[26] = second compound 0.316 µM, first compound 0.01 µM
[27] = second compound 0.316 µM, first compound 0.0316 µM
[28] = second compound 0.316 µM, first compound 0.1 µM
[29] = second compound 1 µM, first compound 0.000316 µM
[30] = second compound 1 µM, first compound 0.001 µM
[31] = second compound 1 µM, first compound 0.00316 µM
[32] = second compound 1 µM, first compound 0.01 µM
[33] = second compound 1 µM, first compound 0.0316 µM
[34] = second compound 1 µM, first compound 0.1 µM
[35] = compound alone, run of 06/12/2023
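Note: spheroids exposed to agents for seven days before the viability read.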

Work on `Cn1ncnc1[C@H]1c2n[nH]c(=O)c3cc(F)cc(c23)N[C@@H]1c1ccc(F)cc1` + COc1c(OCCCN2CCOCC2)ccc2c3n(c(=NC(=O)c4cnc(N)nc4)nc12)CCN3 yielded an IC50 [1] of over 100 nM, an IC50 [2] of over 100 nM and an IC50 [3] of over 100 nM. It also gave an IC50 [4] of 14.9 nM, an IC50 [5] of under 0.316 nM and an IC50 [6] of under 0.316 nM. For the same compound, the viability, T/C (second compound 0.00316 µM, first compound 0.000316 µM) was 98.6%, the viability, T/C (second compound 0.00316 µM, first compound 0.001 µM) was 102% and the viability, T/C (second compound 0.00316 µM, first compound 0.00316 µM) was 95.6%. It also gave a viability, T/C (second compound 0.00316 µM, first compound 0.01 µM) of 101%, a viability, T/C [7] of 98.2% and a viability, T/C [8] of 88.5%. The viability, T/C (second compound 0.01 µM, first compound 0.000316 µM) was 93.8%, the viability, T/C (second compound 0.01 µM, first compound 0.001 µM) was 103% and the viability, T/C (second compound 0.01 µM, first compound 0.00316 µM) was 90.5%. The viability, T/C (second compound 0.01 µM, first compound 0.01 µM) was 93.1%, the viability, T/C [9] was 95.3% and the viability, T/C [10] was 76.2%. It also gave a viability, T/C [11] of 76%, a viability, T/C [12] of 77.7% and a viability, T/C [13] of 88%. The viability, T/C [14] was 83.4%, the viability, T/C [15] was 83.1% and the viability, T/C [16] was 69.8%. For the same compound, the viability, T/C [17] was 50%, the viability, T/C [18] was 50.7% and the viability, T/C [19] was 52%. It also gave a viability, T/C [20] of 57.5%, a viability, T/C [21] of 57.8% and a viability, T/C [22] of 37%. The viability, T/C [23] was 15.2%, the viability, T/C [24] was 16.3% and the viability, T/C [25] was 14.5%. It also gave a viability, T/C [26] of 13.9%, a viability, T/C [27] of 13.5% and a viability, T/C [28] of 7.08%. The viability, T/C [29] was 2.45%, the viability, T/C [30] was 1.53% and the viability, T/C [31] was 1.71%. For the same compound, the viability, T/C [32] was 2.18%, the viability, T/C [33] was 2.36% and the viability, T/C [34] was 1.28%.

In the case of `CC(Nc1ccc2c(c1)OCCn1cc(N3C(=O)OCC3C(F)F)nc1-2)C(N)=O` (stereo unspecified), the viability, T/C (compound 0.00316 µM) is reported as 99.7% [middle of 8 runs], the viability, T/C (compound 0.01 µM) is reported as 96.8% [middle of 8 runs] and the viability, T/C (compound 0.0316 µM) is reported as 99.1% [middle of 8 runs]. For the same compound, the viability, T/C (compound 0.1 µM) was 87.8% [middle of 7 runs], the viability, T/C (compound 0.316 µM) was 76.5% [middle of 8 runs] and the viability, T/C (compound 1 µM) was 53.6% [middle of 8 runs]. It also gave an IC50 [35] of over 1000 nM.

With `Cc1nc(NC(=O)N2CCCC2C(N)=O)sc1-c1ccnc(C(C)(C)C(F)(F)F)c1` (stereo unspecified) the viability, T/C (compound 0.0316 µM) was 103% [middle of 8 runs], the viability, T/C (compound 0.1 µM) was 100% [middle of 8 runs] and the viability, T/C (compound 1 µM) was 78.3% [middle of 8 runs]. For the same compound, the viability, T/C (compound 3.16 µM) was 59.7% [middle of 8 runs], the viability, T/C (compound 10 µM) was 30.9% [middle of 8 runs] and the IC50 [35] was 4.49 µM [middle of 8 runs].

For `CC(C)n1nc(-c2ccc3oc(N)nc3c2)c2c(N)ncnc21` + Cc1nc(NC(=O)N2CCCC2C(N)=O)sc1-c1ccnc(C(C)(C)C(F)(F)F)c1, the IC50 [3] was 14.2 nM, the IC50 [4] was 8.94 nM and the IC50 [5] was 11.1 nM. For the same compound, the IC50 [6] was 8.28 nM, the IC50 (curve of first compound, second compound 3.16 µM) was 3.89 nM and the IC50 (curve of first compound, second compound 10 µM) was under 0.316 nM. It also gave a viability, T/C [11] of 92.2%, a viability, T/C [12] of 87.7% and a viability, T/C [13] of 88.7%. The viability, T/C [14] was 44.3%, the viability, T/C [15] was 41.7% and the viability, T/C [16] was 9.88%. It also gave a viability, T/C [17] of 89.6%, a viability, T/C [18] of 82.7% and a viability, T/C [19] of 102%. The viability, T/C [20] was 45.5%, the viability, T/C [21] was 36% and the viability, T/C [22] was 11.5%. For the same compound, the viability, T/C [23] was 76.1%, the viability, T/C [24] was 80.2% and the viability, T/C [25] was 81.3%. The viability, T/C [26] was 49.1%, the viability, T/C [27] was 26.3% and the viability, T/C [28] was 10.8%. The viability, T/C [29] was 72.5%, the viability, T/C [30] was 69.4% and the viability, T/C [31] was 69.2%. The viability, T/C [32] was 43%, the viability, T/C [33] was 26.5% and the viability, T/C [34] was 8.31%. It also gave a viability, T/C (second compound 3.16 µM, first compound 0.000316 µM) of 55.8%, a viability, T/C (second compound 3.16 µM, first compound 0.001 µM) of 45.2% and a viability, T/C (second compound 3.16 µM, first compound 0.00316 µM) of 60.2%. For the same compound, the viability, T/C (second compound 3.16 µM, first compound 0.01 µM) was 39.2%, the viability, T/C (second compound 3.16 µM, first compound 0.0316 µM) was 22% and the viability, T/C (second compound 3.16 µM, first compound 0.1 µM) was 5.92%. For the same compound, the viability, T/C (second compound 10 µM, first compound 0.000316 µM) was 40.9%, the viability, T/C (second compound 10 µM, first compound 0.001 µM) was 40.5% and the viability, T/C (second compound 10 µM, first compound 0.00316 µM) was 40.1%. The viability, T/C (second compound 10 µM, first compound 0.01 µM) was 26.4%, the viability, T/C (second compound 10 µM, first compound 0.0316 µM) was 15.2% and the viability, T/C (second compound 10 µM, first compound 0.1 µM) was 4.44%.

`C=CC(=O)N1CCN(c2nc(=O)n(-c3c(C)ccnc3C(C)C)c3nc(-c4c(O)cccc4F)c(F)cc23)C(C)C1` (stereo unspecified) + CC(Nc1ccc2c(c1)OCCn1cc(N3C(=O)OCC3C(F)F)nc1-2)C(N)=O gave an IC50 [1] of over 10000 nM, an IC50 [2] of over 10000 nM and an IC50 [3] of over 10000 nM. It also gave an IC50 [4] of over 10000 nM, an IC50 [5] of over 10000 nM and an IC50 [6] of over 10000 nM. It also gave a viability, T/C [7] of 100%, a viability, T/C [8] of 81.7% and a viability, T/C (second compound 0.00316 µM, first compound 0.316 µM) of 98.7%. It also gave a viability, T/C (second compound 0.00316 µM, first compound 1 µM) of 94.5%, a viability, T/C (second compound 0.00316 µM, first compound 3.16 µM) of 106% and a viability, T/C (second compound 0.00316 µM, first compound 10 µM) of 113%. For the same compound, the viability, T/C [9] was 101%, the viability, T/C [10] was 91.8% and the viability, T/C (second compound 0.01 µM, first compound 0.316 µM) was 93.1%. It also gave a viability, T/C (second compound 0.01 µM, first compound 1 µM) of 95.3%, a viability, T/C (second compound 0.01 µM, first compound 3.16 µM) of 103% and a viability, T/C (second compound 0.01 µM, first compound 10 µM) of 91%. For the same compound, the viability, T/C [15] was 95.7%, the viability, T/C [16] was 112% and the viability, T/C (second compound 0.0316 µM, first compound 0.316 µM) was 86.9%. It also gave a viability, T/C (second compound 0.0316 µM, first compound 1 µM) of 111%, a viability, T/C (second compound 0.0316 µM, first compound 3.16 µM) of 115% and a viability, T/C (second compound 0.0316 µM, first compound 10 µM) of 92.2%. The viability, T/C [21] was 77.9%, the viability, T/C [22] was 94.3% and the viability, T/C (second compound 0.1 µM, first compound 0.316 µM) was 95.2%. It also gave a viability, T/C (second compound 0.1 µM, first compound 1 µM) of 124%, a viability, T/C (second compound 0.1 µM, first compound 3.16 µM) of 88.5% and a viability, T/C (second compound 0.1 µM, first compound 10 µM) of 89.7%. It also gave a viability, T/C [27] of 68.2%, a viability, T/C [28] of 75.9% and a viability, T/C (second compound 0.316 µM, first compound 0.316 µM) of 81.5%. The viability, T/C (second compound 0.316 µM, first compound 1 µM) was 68.1%, the viability, T/C (second compound 0.316 µM, first compound 3.16 µM) was 87.7% and the viability, T/C (second compound 0.316 µM, first compound 10 µM) was 70.6%. For the same compound, the viability, T/C [33] was 63.9%, the viability, T/C [34] was 63.2% and the viability, T/C (second compound 1 µM, first compound 0.316 µM) was 65.1%. The viability, T/C (second compound 1 µM, first compound 1 µM) was 74%, the viability, T/C (second compound 1 µM, first compound 3.16 µM) was 68.3% and the viability, T/C (second compound 1 µM, first compound 10 µM) was 55.6%.

For `CC(Nc1ncnc2nc[nH]c12)c1cc2cccc(Cl)c2c(=O)n1-c1ccccc1` (stereo unspecified), the viability, T/C (compound 0.0316 µM) was 101% [middle of 8 runs], the viability, T/C (compound 0.1 µM) was 104% [middle of 8 runs] and the viability, T/C (compound 0.316 µM) was 99.3% [middle of 8 runs]. The viability, T/C (compound 1 µM) was 97.6% [middle of 8 runs], the viability, T/C (compound 3.16 µM) was 92.8% [middle of 8 runs] and the viability, T/C (compound 10 µM) was 94.6% [middle of 8 runs]. For the same compound, the IC50 (compound alone, run of 06/13/2023) was over 10000 nM.
